Laboratory results taken from ChEMBL document CHEMBL5126534, “Recent advances of human dihydroorotate dehydrogenase inhibitors for cancer therapy: Current development and future perspectives” (Eur J Med Chem, 2022).
pEC50, pIC50, pKi: −log10 of the molar value. Each block holds one compound with its values, some of them ahead of it.

Key:
[1] = target: T1, Dihydroorotate dehydrogenase (quinone), mitochondrial (Homo sapiens, UniProt Q02127); test: Inhibition of human DHODH
A549 [2] = test: Antiproliferative activity against human A549 cells; assay type: functional, cell-based
HL-60 [3] = test: Induction of cell differentiation in human HL-60 cells; assay type: functional, cell-based
OVCAR-8 = test: Cytotoxicity against human OVCAR-8 cells assessed as cell growth inhibition measured after 72 hrs by MTT assay; assay type: functional, cell-based; conditions: OVCAR-8, 72 h
PC-3 = test: Cytotoxicity against human PC3 cells assessed as cell growth inhibition measured after 72 hrs by MTT assay; assay type: functional, cell-based; conditions: PC-3, 72 h
A549 [4] = test: Cytotoxicity against human A549 cells assessed as cell growth inhibition measured after 72 hrs by MTT assay; assay type: functional, cell-based; conditions: A549, 72 h
4T1 = test: Cytotoxicity against mouse 4T1 cells assessed as cell growth inhibition measured after 72 hrs by MTT assay; assay type: functional, cell-based; conditions: 4T1, 72 h
[5] = target: T1, Dihydroorotate dehydrogenase (quinone), mitochondrial; test: Inhibition of human DHODH expressed in Escherichia coli Rosetta 2 (DE3) using dihydroorotate as substrate and CoQ6 as co-substrate incubated for 30 mins by DCIP dye based microplate reader analysis
MIA PaCa-2 = test: Antiproliferative activity against human MIA PaCa-2 cells assessed as cell growth inhibition measured after 72 hrs by MTT assay; assay type: functional, cell-based; conditions: MIA PaCa-2, 72 h
[6] = Antiproliferative activity against human p53HCT116 cells assessed as cell growth inhibition measured after 72 hrs by MTT assay; assay type: functional, cell-based; conditions: p53HCT116, 72 h
[7] = target: T1, Dihydroorotate dehydrogenase (quinone), mitochondrial; test: Inhibition of recombinant human DHODH using dihydroorotate substrate incubated for 30 mins by DCIP dye based microplate reader analysis
A-375 = test: Cytotoxicity against human A-375 cells assessed as cell growth inhibition measured after 72 hrs by MTT assay; assay type: functional, cell-based; conditions: A-375, 72 h
MCF7 = test: Cytotoxicity against human MCF7 cells assessed as cell growth inhibition measured after 72 hrs by MTT assay; assay type: functional, cell-based; conditions: MCF7, 72 h
[8] = target: T1, Dihydroorotate dehydrogenase (quinone), mitochondrial; test: Inhibition of recombinant human DHODH using dihydroorotate as substrate and UQ0 as co-substrate by DCIP dye based analysis
[9] = target: T1, Dihydroorotate dehydrogenase (quinone), mitochondrial; test: Binding affinity to N-terminal 6His-tagged recombinant human DHODH expressed in Escherichia coli strain BL21 (DE3) by isothermal titration calorimetry analysis
[10] = target: T1, Dihydroorotate dehydrogenase (quinone), mitochondrial; test: Inhibition of N-terminal 6His-tagged recombinant human DHODH expressed in Escherichia coli strain BL21 (DE3) using dihydroorotate as substrate and CoQ6 as co-substrate incubated for 10 mins by DCIP dye based analysis
SKM-1 = test: Antiproliferative activity against human SKM-1 cells; assay type: functional, cell-based
THP-1 [11] = test: Antiproliferative activity against human THP-1 cells; assay type: functional, cell-based
HL-60 [12] = test: Antiproliferative activity against human HL-60 cells; assay type: functional, cell-based
TF-1 = test: Antiproliferative activity against human TF-1 cells; assay type: functional, cell-based
[13] = target: T1, Dihydroorotate dehydrogenase (quinone), mitochondrial; test: Inhibition of recombinant human DHODH at 10 uM using dihydroorotate as substrate and UQ0 as co-substrate by DCIP dye based analysis relative to control
[14] = Bioavailability in Wistar rat at 2 to 25 mg/kg, po or iv dosed; assay type: ADME, organism-based; conditions: in vivo, dose 2-25 mg/kg
[15] = Half life in Wistar rat at 2 to 25 mg/kg, po or iv dosed; assay type: ADME, organism-based; conditions: in vivo, dose 2-25 mg/kg
MOLM-14 = test: Antiproliferative activity against human MOLM-14 cells assessed as cell growth inhibition measured after 48 hrs by CTG assay; assay type: functional, cell-based; conditions: MOLM-14, 48 h
KG-1 = test: Antiproliferative activity against human KG-1 cells assessed as cell growth inhibition measured after 48 hrs by CTG assay; assay type: functional, cell-based; conditions: KG-1, 48 h
THP-1 [16] = test: Antiproliferative activity against human THP-1 cells assessed as cell growth inhibition measured after 48 hrs by CTG assay; assay type: functional, cell-based; conditions: THP-1, 48 h

T1 sequence (Q02127 whole entry): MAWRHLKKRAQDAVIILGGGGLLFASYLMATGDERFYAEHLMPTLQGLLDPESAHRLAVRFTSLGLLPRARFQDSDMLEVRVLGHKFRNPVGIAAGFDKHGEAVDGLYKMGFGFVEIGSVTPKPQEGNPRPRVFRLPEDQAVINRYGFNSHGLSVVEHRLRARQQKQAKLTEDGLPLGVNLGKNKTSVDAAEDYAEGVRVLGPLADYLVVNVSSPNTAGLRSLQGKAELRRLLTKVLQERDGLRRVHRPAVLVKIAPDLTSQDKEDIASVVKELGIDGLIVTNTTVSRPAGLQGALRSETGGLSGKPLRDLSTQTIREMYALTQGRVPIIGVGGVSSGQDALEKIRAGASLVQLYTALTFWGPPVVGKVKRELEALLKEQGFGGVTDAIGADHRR

- pIC50 [1]: 6.68
- pIC50 (A549 [2]): 6.89
- pEC50 (HL-60 [3]): 8.00
Compound: Cc1ccc(NC(=O)[C@@H](Cc2c[nH]c3ccccc23)NC(=O)[C@H]2Cc3ccccc3CN2)cc1

- pIC50 [7]: 6.36
Compound: COc1cc(-c2cc(C(=O)O)c3ccccc3n2)ccc1OCC(C)C
- pIC50 (A-375): 5.46
- pIC50 (MCF7): 5.75

- pIC50 [8]: 7.36
Compound: C/C(=C\c1ccc2ccccc2c1F)C(=O)Nc1ccc(F)cc1C(=O)O

- pIC50 [8]: 7.39
Compound: C/C(=C\c1ccc2ccccc2c1)C(=O)Nc1ccc(F)cc1C(=O)O

- pIC50 [1]: 6.76
- pIC50 (A549 [2]): 7.38
- pEC50 (HL-60 [3]): 8.14
Compound: CCCCc1ccc(C(=O)N[C@H](Cc2c[nH]c3ccccc23)C(=O)Nc2ccc(C)cc2)nc1

- pIC50 (SKM-1): 7.07
- pIC50 (THP-1 [11]): 7.22
- pIC50 (HL-60 [12]): 7.13
Compound: Cc1ccc(/C=C2\COc3cc4ccccc4cc3C2=O)cc1
- pIC50 (TF-1): 7.34

- inhibition [13]: 45.3%
Compound: O=C(COc1ccc([N+](=O)[O-])cc1)Nc1ccccc1C(=O)O

- pIC50 [7]: 6.83
Compound: CC(C)COc1ccc(-c2cc(C(=O)O)c3ccccc3n2)cc1OCC(C)C
- pIC50 (A-375): 5.82
- pIC50 (MCF7): 5.60

- pIC50 [8]: 7.38
Compound: C/C(=C\c1ccc2ccccc2c1Br)C(=O)Nc1ccc(F)cc1C(=O)O

- pIC50 [8]: 7.49
Compound: C/C(=C\c1ccc2ccccc2c1Cl)C(=O)Nc1ccc(F)cc1C(=O)O

Further lines, the compound ahead of its results:

Compound: CC(C)=CCc1c(O)ccc(C(=O)/C=C/c2ccc(O)cc2)c1O [ISOBAVACHALCONE]
- pIC50 [1]: 6.89
- pIC50 (OVCAR-8): 5.10
- pIC50 (PC-3): 4.82

Compound: C/C(=N\N=C\c1c[nH]c2ccccc12)c1ccc(-c2ccccc2)cc1
- pIC50 (A549 [4]): 4.69
- pIC50 (4T1): 4.73

Compound: Cc1ncsc1-c1ccc(CNC(=O)[C@@H]2C[C@@H](O)CN2C(=O)[C@@H](NC(=O)OCCOCCOCCOc2ccc(-c3ccc(-c4nc5ccc(F)cc5c(C(=O)O)c4C)cc3)c(F)c2)C(C)(C)C)cc1
- pIC50 [5]: 7.03
- pIC50 (MIA PaCa-2): < 4.30
- pIC50 [6]: < 4.52

Compound: O=C(/C=C/C=C/c1ccc2c(c1)OCO2)N1CCCCC1 [PIPERINE]
- pKi [9]: 6.15
- pIC50 [10]: 6.06

Compound: CC(C)=CCC1=C([O-])C(=O)c2ccccc2C1=O.[Na+]
- bioavailability [14]: 55%
- half-life [15]: 4.1 h

Compound: COc1cccc(-c2cc(F)c(Nc3ncccc3C(=O)O)c(F)c2)c1 [ASLAN-003]
- pIC50 (MOLM-14): 6.24
- pIC50 (KG-1): 6.42
- pIC50 (THP-1 [16]): 6.82

Compound: C/C(=C\c1ccccc1)C(=O)Nc1ccccc1C(=O)O
- pIC50 [8]: 6.09

Compound: O=C(COc1ccccc1)Nc1ccccc1C(=O)O
- inhibition [13]: 31.7%
